According to patent US8618303B2, “Pyrrolidine derivatives” (Hoffmann-La Roche Inc., priority 2011, dated 2013):

Target: human NK3 receptor (Homo sapiens (Human), UniProt P29371)
Test: [3H]SR142801 competition binding assay
Settings: not given
Description: hNK3 receptor binding experiment were performed using [^3H]SR142801 (Catalog No. TRK1035, specific activity: 74.0 Ci/mmol, Amersham, GE Healthcare UK limited, Buckinghamshire, UK) and membrane isolated from HEK293 cells transiently expressing recombinant human NK3 receptor. After thawing, the membrane homogenates were centrifuged at 48,000×g for 10 min at 4° C., the pellets were resuspended in the 50 mM Tris-HCl, 4 mM MnCl2, 1 μM phosphoramidon, 0.1% BSA binding buffer at pH 7.4 to a final assay concentration of 5 μg protein/well. […] At the end of the incubation, membranes were filtered onto unitfilter (96-well white microplate with bonded GF/C filter preincubated 1 h in 0.3% PEI+0.3% BSA, Packard BioScience, Meriden, Conn.) with a Filtermate 196 harvester (Packard BioScience) and washed 4 times with ice-cold 50 mM Tris-HCl, pH 7.4 buffer. Nonspecific binding was measured in the presence of 10μM SB222200 for both radioligands. The radioactivity on the filter was counted (5 min) on a Packard Top-count microplate scintillation counter with quenching correction after addition of 45 μl of microscint 40 (Canberra Packard S.A., Ziirich, Switzerland) and shaking for 1 h. Inhibition curves were fitted according to the Hill equation: y=100/(1+(x/IC50), where nH=slope factor using Excel-fit 4 software (Microsoft). IC50 values were derived from the inhibition curve and the affinity constant (Ki) values were calculated using the Cheng-Prussoff equation Ki =IC50/(1+[L]/KD) where [L] is the concentration of radioligand and KD is its dissociation constant at the receptor, derived from the saturation isotherm. All experiments were performed in duplicate and the mean±standard error (SEM) of the individual Ki values was calculated.

Sequence of human NK3 receptor (P29371 whole entry): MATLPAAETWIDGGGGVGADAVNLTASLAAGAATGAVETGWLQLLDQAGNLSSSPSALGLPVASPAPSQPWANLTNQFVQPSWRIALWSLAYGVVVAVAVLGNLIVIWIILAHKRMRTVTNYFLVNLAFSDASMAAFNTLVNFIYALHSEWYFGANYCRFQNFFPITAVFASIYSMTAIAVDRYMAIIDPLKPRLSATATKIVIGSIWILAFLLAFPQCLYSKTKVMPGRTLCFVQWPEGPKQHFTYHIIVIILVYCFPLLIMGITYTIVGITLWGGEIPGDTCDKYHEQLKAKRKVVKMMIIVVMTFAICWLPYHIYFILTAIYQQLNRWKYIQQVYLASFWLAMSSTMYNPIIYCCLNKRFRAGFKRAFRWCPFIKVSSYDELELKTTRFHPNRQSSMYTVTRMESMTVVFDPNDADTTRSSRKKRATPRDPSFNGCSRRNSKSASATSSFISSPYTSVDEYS

Structure (SMILES) | Ki [µM]
CN(C(=O)Oc1ccc(F)cc1)[C@@H]1CN(C(=O)C2CCN(c3ccc(C#N)cc3)CC2)C[C@@]1(C)c1ccc(Cl)cc1 (racemic) [Example 22, rac-{(3S,4R)-4-(4-Chloro-phenyl)-1-[1-(4-cyano-phenyl)-piperidine-4-carbonyl]-4-methyl-pyrrolidin-3-yl}-methyl-carbamic acid 4-fluoro-phenyl ester] | 0.0105
CN(C(=O)Oc1ccc(F)cc1)[C@@H]1CN(C(=O)C2CCN(c3ccc(F)cn3)CC2)C[C@@]1(C)c1ccc(Cl)cc1 (racemic) [Example 23, rac-[(3S,4R)-4-(4-Chloro-phenyl)-1-(5′-fluoro-3,4,5,6-tetrahydro-2H-[1,2′]bipyridinyl-4-carbonyl)-4-methyl-pyrrolidin-3-yl]-methyl-carbamic acid 4-fluoro-phenyl ester] | 0.0435
CN(C(=O)Oc1ccc(F)cc1)[C@@H]1CN(C(=O)C2CCN(C3CCCCC3)CC2)C[C@@]1(C)c1ccc(Cl)cc1 [Example 25, [(3S,4R)-4-(4-Chloro-phenyl)-1-(1-cyclohexyl-piperidine-4-carbonyl)-4-methyl-pyrrolidin-3-yl]-methyl-carbamic acid 4-fluoro-phenyl ester] | 0.0915
CN(C(=O)Oc1ccc(F)cc1)[C@@]1(C)CN(C(=O)C2CCN(c3ccc(C#N)cn3)CC2)C[C@@H]1c1ccc(Cl)cc1 (racemic) [Example 9, rac-[(3R,4S)-4-(4-Chloro-phenyl)-1-(5′-cyano-3,4,5,6-tetrahydro-2H-[1,2′]bipyridinyl-4-carbonyl)-3-methyl-pyrrolidin-3-yl]-methyl-carbamic acid 4-fluoro-phenyl ester] | 0.0021
COc1ccc(N2CCC(C(=O)N3C[C@@H](N(C)C(=O)Oc4ccc(F)cc4)[C@](C)(c4ccc(Cl)cc4)C3)CC2)nn1 (racemic) [Example 35, rac-{(3S,4R)-4-(4-Chloro-phenyl)-1-[1-(6-methoxy-pyridazin-3-yl)-piperidine-4-carbonyl]-4-methyl-pyrrolidin-3-yl}-methyl-carbamic acid 4-fluoro-phenyl ester] | 0.0213
CN(C(=O)Oc1ccc(F)cc1)[C@@]1(C)CN(C(=O)C2CCN(C3CCCCC3)CC2)C[C@@H]1c1ccc(Cl)cc1 (racemic) [Example 2, rac-[(3R,4S)-4-(4-Chloro-phenyl)-1-(1-cyclohexyl-piperidine-4-carbonyl)-3-methyl-pyrrolidin-3-yl]-methyl-carbamic acid 4-fluoro-phenyl ester] | 0.0201

Same assay, conditions: membranes from HEK293 cells transiently expressing recombinant human NK3 receptor; [3H]SR142801; Ki from IC50 by Cheng-Prussoff; read-out: Ki (uM) hNK3

Structure (SMILES) | Ki [µM]
CN(C(=O)Oc1ccc(F)cc1)[C@@]1(C)CN(C(=O)C2CCN(c3ccc(C#N)cc3)CC2)C[C@@H]1c1ccc(Cl)cc1 (racemic) [Example 10, rac-{(3R,4S)-4-(4-Chloro-phenyl)-1-[1-(4-cyano-phenyl)-piperidine-4-carbonyl]-3-methyl-pyrrolidin-3-yl}-methyl-carbamic acid 4-fluoro-phenyl ester] | 0.0038
CN(C(=O)Oc1ccc(F)cc1)[C@@H]1CN(C(=O)c2ccc(N3CCCCC3=O)cc2)C[C@@]1(C)c1ccc(Cl)cc1 (racemic) [Example 36, rac-{(3S,4R)-4-(4-Chloro-phenyl)-4-methyl-1-[4-(2-oxo-piperidin-1-yl)-benzoyl]-pyrrolidin-3-yl}-methyl-carbamic acid 4-fluoro-phenyl ester] | 0.997
CC(=O)c1ccc(N2CCC(C(=O)N3C[C@H](c4ccc(Cl)cc4)[C@@](C)(N(C)C(=O)Oc4ccc(F)cc4)C3)CC2)nc1 (racemic) [Example 11, rac-[(3R,4S)-1-(5′-Acetyl-3,4,5,6-tetrahydro-2H-[1,2′]bipyridinyl-4-carbonyl)-4-(4-chloro-phenyl)-3-methyl-pyrrolidin-3-yl]-methyl-carbamic acid 4-fluoro-phenyl ester] | 0.0045
CN(C(=O)Oc1ccc(F)cc1)[C@@]1(C)CN(C(=O)c2ccc(C#N)nc2)C[C@@H]1c1ccc(Cl)cc1 (racemic) [Example 14, rac-[(3R,4S)-4-(4-Chloro-phenyl)-1-(6-cyano-pyridine-3-carbonyl)-3-methyl-pyrrolidin-3-yl]-methyl-carbamic acid 4-fluoro-phenyl ester] | 0.0774
CN(C(=O)Oc1ccc(F)cc1)[C@@]1(C)CN(C(=O)C2CCN(c3ccc(C#N)nc3)CC2)C[C@@H]1c1ccc(Cl)cc1 (racemic) [Example 18, rac-[(3R,4S)-4-(4-Chloro-phenyl)-1-(6′-cyano-3,4,5,6-tetrahydro-2H-[1,3′]bipyridinyl-4-carbonyl)-3-methyl-pyrrolidin-3-yl]-methyl-carbamic acid 4-fluoro-phenyl ester] | 0.0028
Cc1cc(C(=O)N2C[C@H](c3ccc(Cl)cc3)[C@@](C)(N(C)C(=O)Oc3ccc(F)cc3)C2)cnn1 (racemic) [Example 6, rac-[(3R,4S)-4-(4-Chloro-phenyl)-3-methyl-1-(6-methyl-pyridazine-4-carbonyl)-pyrrolidin-3-yl]-methyl-carbamic acid 4-fluoro-phenyl ester] | 0.0649
CC(C)C(=O)N1CCC(C(=O)N2C[C@@H](N(C)C(=O)Oc3ccc(F)cc3)[C@](C)(c3ccc(Cl)cc3)C2)CC1 (racemic) [Example 24, rac-[(3S,4R)-4-(4-Chloro-phenyl)-1-(1-isobutyryl-piperidine-4-carbonyl)-4-methyl-pyrrolidin-3-yl]-methyl-carbamic acid 4-fluoro-phenyl ester] | 0.0392
Cc1nc(-c2ccc(C(=O)N3C[C@H](c4ccc(Cl)cc4)[C@@](C)(N(C)C(=O)Oc4ccc(F)cc4)C3)cc2)no1 (racemic) [Example 17, rac-{(3R,4S)-4-(4-Chloro-phenyl)-3-methyl-1-[4-(5-methyl-[1,2,4]oxadiazol-3-yl)-benzoyl]-pyrrolidin-3-yl}-methyl-carbamic acid 4-fluoro-phenyl ester] | 0.0354
CN(C(=O)Oc1ccc(F)cc1)[C@@H]1CN(C(=O)C2CCN(c3ccc(C#N)cn3)CC2)C[C@@]1(C)c1ccc(Cl)cc1 (racemic) [Example 30, rac-[(3S,4R)-4-(4-Chloro-phenyl)-1-(5′-cyano-3,4,5,6-tetrahydro-2H-[1,2′]bipyridinyl-4-carbonyl)-4-methyl-pyrrolidin-3-yl]-methyl-carbamic acid 4-fluoro-phenyl ester] | 0.0053
CN(C(=O)Oc1ccc(F)cc1)[C@@H]1CN(C(=O)c2ccc(C#N)cc2)C[C@@]1(C)c1ccc(Cl)cc1 (racemic) [Example 26, rac-[(3S,4R)-4-(4-Chloro-phenyl)-1-(4-cyano-benzoyl)-4-methyl-pyrrolidin-3-yl]-methyl-carbamic acid 4-fluoro-phenyl ester] | 0.629
Cc1ccc(N2CCC(C(=O)N3C[C@@H](N(C)C(=O)Oc4ccc(F)cc4)[C@](C)(c4ccc(Cl)cc4)C3)CC2)nc1 (racemic) [Example 29, rac-[(3S,4R)-4-(4-Chloro-phenyl)-4-methyl-1-(5′-methyl-3,4,5,6-tetrahydro-2H-[1,2′]bipyridinyl-4-carbonyl)-pyrrolidin-3-yl]-methyl-carbamic acid 4-fluoro-phenyl ester] | 0.0245

System: not given
Test: not given
Settings: phase II trial; cited from earlier work

Structure (SMILES) | activity on negative symptoms of schizophrenia | activity on positive symptoms of schizophrenia
CC(=O)N(C)C1(c2ccccc2)CCN(CCC[C@]2(c3ccc(Cl)c(Cl)c3)CCCN(C(=O)c3ccccc3)C2)CC1 [SR 142,801, Osanetant] | inactive in the treatment of negative symptoms | active on positive symptoms of schizophrenia
